Measured values from patent US9938258B2 (Karyopharm Therapeutics Inc., priority 2012, dated 2018).
Read-outs that look alike come from different tables or passages of the source.

What was measured:
Z138 cells = test: MTT cell proliferation assay, Z138; format: cell-based
Description: (§1) The MTT cell proliferation assay was used to study the cytotoxic properties of the compounds. The assay was performed according to the method described by Roche Molecular Biochemicals, with minor modifications. The assay is based on the cleavage of the tetrazolium salt, MTT, in the presence of an electron-coupling reagent. The water-insoluble formazan salt produced must be solubilized in an additional step. Cells grown in a 96-well tissue culture plate were incubated with the MTT solution for approximately 4 hours. After this incubation period, a water-insoluble formazan dye formed. After solubilization, the formazan dye was quantitated using a scanning multi-well spectrophotometer (ELISA reader). […] The cells were seeded at 5,000-10,000 cells in each well of 96-well plate in 100 μL of fresh culture medium and were allowed to attach overnight. The stock solutions of the compounds were diluted in 100 μL cell culture medium to obtain eight concentrations of each test compound, ranging from 1 nM to 30 μM. […] All optical densities were measured at 490 nm using a Vmax Kinetic Microplate Reader (Molecular Devices). In most cases, the assay was performed in duplicate and the results were presented as a mean percent inhibition to the negative control±SE. The following formula was used to calculate the percent of inhibition: Inhibition (%)=(1-(ODo/OD)) ×100.
(§2) The compounds were tested against MS751, Z138 and 3T3 cells. The MS751 cell line is derived from a metastasis to lymph node of human cervix from a patient diagnosed with squameous cell carcinoma of the cervix. The Z138 cell line is a mature B-cell acute lymphoblastic leukemia cell line derived from a patient with chronic lumphocytic leukemia. 3T3 cells are standard fibroblast cells; they were originally isolated from Swiss mouse embryo tissue.

MS751 cells = test: MTT cell proliferation assay, MS751; format: cell-based, human
Description: as §1, §2

3T3 cells = test: MTT cell proliferation assay, 3T3; format: cell-based, mouse
Description: as §1, §2

[1] = Homo sapiens, Z-138, Z138 cells, eight concentrations 1 nM to 30 μM, incubation approximately 64-72 hours, read-out: MTT Assay IC50, Z138
[2] = Homo sapiens, MS751, MS751 cells, eight concentrations 1 nM to 30 μM, incubation approximately 64-72 hours, read-out: MTT Assay IC50, MS751
[3] = Mus musculus, NIH3T3, 3T3 cells, eight concentrations 1 nM to 30 μM, incubation approximately 64-72 hours, read-out: MTT Assay IC50, 3T3
[4] = Homo sapiens, Z-138, Z138 cells, approximately 64-72 hours incubation, read-out: MTT Assay IC50, Z138
[5] = Homo sapiens, MS751, MS751 cells, approximately 64-72 hours incubation, read-out: MTT Assay IC50, MS751
[6] = Mus musculus, NIH3T3, 3T3 cells, approximately 64-72 hours incubation, read-out: MTT Assay IC50, 3T3

Structure (SMILES) | IC50 (Z138 cells; [1]) [µM] | IC50 (MS751 cells; [2]) [µM] | IC50 (3T3 cells; [3]) [µM] | IC50 (Z138 cells; [4]) [µM] | IC50 (MS751 cells; [5]) [µM] | IC50 (3T3 cells; [6]) [µM] | further results
O=C(/C=C/c1cccnc1)NCC1Cc2cc(-c3cccc(C(=O)O)c3)cc(Cl)c2O1 (stereo not drawn) [Compound 76, (E)-3-(7-chloro-2-((3-(pyridin-3-yl)acrylamido)methyl)-2,3-dihydrobenzofuran-5-yl)benzoic acid] | 5 to 30 | 5 to 30 | 5 to 30 |  |  |  | 
CC(=O)c1ccc(-c2cc(Cl)c3c(c2)CC(CNC(=O)/C=C/c2cc(C)on2)O3)s1 (stereo not drawn) [Compound 277, (E)-N-((5-(5-acetylthiophen-2-yl)-7-chloro-2,3-dihydrobenzofuran-2-yl)methyl)-3-(5-methylisoxazol-3-yl)acrylamide] | > 30 | 0.1 to 5 | > 30 |  |  |  | 
CC(=O)c1ccc(-c2cc(Cl)c3c(c2)CC(CNC(=O)/C=C/c2cnc(C)s2)O3)s1 (stereo not drawn) [Compound 148, (E)-N-((5-(5-acetylthiophen-2-yl)-7-chloro-2,3-dihydrobenzofuran-2-yl)methyl)-3-(2-methylthiazol-5-yl)acrylamide] | > 30 | 5 to 30 | > 30 |  |  |  | 
Nc1ccc(CNC(=O)/C=C/C2Cc3cc(-c4ccc(C(=O)N5CC[C@H](F)C5)cc4)cc(Cl)c3O2)cn1 (stereo partly drawn) [Compound 359, (E)-N-((6-Aminopyridin-3-yl)methyl)-3-(7-chloro-5-(4-((S)-3-fluoropyrrolidine-1-carbonyl)phenyl)-2,3-dihydrobenzofuran-2-yl)acrylamide] |  |  |  | > 30 | 0.1 to 5 | 5 to 30 | 
O=C(/C=C/c1cccnc1)NCC1Cc2cc(-c3ccc(Cl)cc3F)cc(Cl)c2O1 (stereo not drawn) [Compound 55, (E)-N-((7-chloro-5-(4-chloro-2-fluorophenyl)-2,3-dihydrobenzofuran-2-yl)methyl)-3-(pyridin-3-yl)acrylamide] | 0.1 to 5 | 0.1 to 5 | > 30 |  |  |  | 
CC(=O)c1ccc(-c2cc(Cl)c3c(c2)CC(CNC(=O)/C=C/C2C(Cl)=NC4=CC=CCN42)O3)s1 (stereo not drawn) [Compound 120, (E)-N-((5-(5-Acetylthiophen-2-yl)-7-chloro-2,3-dihydrobenzofuran-2-yl)methyl)-3-(2-chloro-3,5-dihydroimidazo[1,2-a]pyridin-3-yl)acrylamide] | 5 to 30 | 5 to 30 | 5 to 30 |  |  |  | 
Nc1ccc(CNC(=O)/C=C/C2Cc3cc(-c4ccc(C(=O)N5CC[C@@H](F)C5)cc4)cc(Cl)c3O2)cn1 (stereo partly drawn) [Compound 358, (E)-N-((6-aminopyridin-3-yl)methyl)-3-(7-chloro-5-(4-((R)-3-fluoropyrrolidine-1-carbonyl)phenyl)-2,3-dihydrobenzofuran-2-yl)acrylamide] |  |  |  | > 30 | 0.1 to 5 | 0.1 to 5 | 
Nc1ccc(/C=C/C(=O)NCC2Cc3cc(-c4ccc(C(=O)N5CCOCC5)c(F)c4F)cc(Cl)c3O2)cn1 (stereo not drawn) [Compound 901, (E)-3-(6-aminopyridin-3-yl)-N-((7-chloro-5-(2,3-difluoro-4-(morpholine-4-carbonyl)phenyl)-2,3-dihydrobenzofuran-2-yl)methyl)acrylamide] |  |  |  | < 0.1 | < 0.1 | 0.1 to 5 | 
Nc1ccc(/C=C/C(=O)NCC2Oc3c(Cl)cc(-c4ccc(C(=O)N5CCOCC5)cc4)cc3C2=O)cn1 (stereo not drawn) [Compound 348, (E)-3-(6-aminopyridin-3-yl)-N-((7-chloro-5-(4-(morpholine-4-carbonyl)phenyl)-3-oxo-2,3-dihydrobenzofuran-2-yl)methyl)acrylamide] |  |  |  |  |  |  | IC50 (Z138 cells; Homo sapiens, Z-138, read-out: MTT Assay IC50, Z138): 5 to 30 µM; IC50 (MS751 cells; Homo sapiens, MS751, read-out: MTT Assay IC50, MS751): 0.1 to 5 µM; IC50 (3T3 cells; Mus musculus, NIH3T3, read-out: MTT Assay IC50, 3T3): 0.1 to 5 µM
CC(=O)c1ccc(-c2cc(Cl)c3c(c2)CC(CNC(=O)/C=C/c2ccc(C#N)cc2)O3)s1 (stereo not drawn) [Compound 112, (E)-N-((5-(5-acetylthiophen-2-yl)-7-chloro-2,3-dihydrobenzofuran-2-yl)methyl)-3-(4-cyanophenyl)acrylamide] | > 30 | > 30 | > 30 |  |  |  | 
CC(=O)c1ccc(-c2cc(Cl)c3c(c2)CC(CNC(=O)/C=C/c2c(Cl)nc4sccn24)O3)s1 (stereo not drawn) [Compound 276, (E)-N-((5-(5-acetylthiophen-2-yl)-7-chloro-2,3-dihydrobenzofuran-2-yl)methyl)-3-(6-chloroimidazo[2,1-b]thiazol-5-yl)acrylamide] | > 30 | > 30 | > 30 |  |  |  | 
CC(=O)c1ccc(-c2cc(Cl)c3c(c2)CC(CNC(=O)/C=C/c2c(C)nn(-c4ccccc4)c2Cl)O3)s1 (stereo not drawn) [Compound 211, (E)-N-((5-(5-acetylthiophen-2-yl)-7-chloro-2,3-dihydrobenzofuran-2-yl)methyl)-3-(5-chloro-3-methyl-1-phenyl-1H-pyrazol-4-yl)acrylamide] |  |  |  | > 30 | > 30 | > 30 | 
CC(=O)c1ccc(-c2cc(Cl)c3c(c2)CC(CNC(=O)/C=C/c2csc(-c4ccc(F)cc4)n2)O3)s1 (stereo not drawn) [Compound 206, (E)-N-((5-(5-acetylthiophen-2-yl)-7-chloro-2,3-dihydrobenzofuran-2-yl)methyl)-3-(2-(4-fluorophenyl)thiazol-4-yl)acrylamide] |  |  |  | > 30 | > 30 | > 30 | 
CC(=O)c1ccc(-c2cc(Cl)c3c(c2)CC(CNC(=O)/C=C/c2cc(C)n(-c4nccs4)c2C)O3)s1 (stereo not drawn) [Compound 285, (E)-N-((5-(5-Acetylthiophen-2-yl)-7-chloro-2,3-dihydrobenzofuran-2-yl)methyl)-3-(2,5-dimethyl-1-(thiazol-2-yl)-1H-pyrrol-3-yl)acrylamide] |  |  |  | > 30 | > 30 | > 30 | 
Nc1ccc(/C=C/C(=O)NCC2Cc3cc(-c4ncc(C(=O)N5CCOCC5)cn4)cc(Cl)c3O2)cn1 (stereo not drawn) [Compound 330, (E)-3-(6-Aminopyridin-3-yl)-N-((7-chloro-5-(5-(morpholine-4-carbonyl)pyrimidin-2-yl)-2,3-dihydrobenzofuran-2-yl)methyl)acrylamide] |  |  |  | < 0.1 | < 0.1 | 5 to 30 | 
CC(=O)c1ccc(-c2cc(Cl)c3c(c2)CC(CNC(=O)/C=C/c2ccc(C)nc2)O3)s1 (stereo not drawn) [Compound 146, (E)-N-((5-(5-acetylthiophen-2-yl)-7-chloro-2,3-dihydrobenzofuran-2-yl)methyl)-3-(6-methylpyridin-3-yl)acrylamide] | > 30 | 5 to 30 | > 30 |  |  |  | 
CC(=O)c1ccc(-c2cc(Cl)c3c(c2)CC(CNC(=O)/C=C/c2cc(C)n(-c4ccc(Cl)cc4)c2C)O3)s1 (stereo not drawn) [Compound 209, (E)-N-((5-(5-acetylthiophen-2-yl)-7-chloro-2,3-dihydrobenzofuran-2-yl)methyl)-3-(1-(4-chlorophenyl)-2,5-dimethyl-1H-pyrrol-3-yl)acrylamide] |  |  |  | > 30 | > 30 | > 30 | 
CC(=O)c1ccc(-c2cc(Cl)c3c(c2)CC(CNC(=O)/C=C\c2cccnc2)O3)s1 (single isomer, unassigned) [Compound 313, (Z)-N-((5-(5-acetylthiophen-2-yl)-7-chloro-2,3-dihydrobenzofuran-2-yl)methyl)-3-(pyridin-3-yl)acrylamide] |  |  |  |  |  |  | IC50 (Z138 cells; Z138 cells, approximately 64-72 hours incubation, read-out: MTT Assay IC50, Z138): 0.1 to 5 µM; IC50 (MS751 cells; MS751 cells, approximately 64-72 hours incubation, read-out: MTT Assay IC50, MS751): 0.1 to 5 µM; IC50 (3T3 cells; 3T3 cells, approximately 64-72 hours incubation, read-out: MTT Assay IC50, 3T3): > 30 µM
Cc1noc(C)c1-c1cc(Cl)c2c(c1)CC(CNC(=O)/C=C/c1cccnc1)O2 (stereo not drawn) [Compound 35, (E)-N-((7-chloro-5-(3,5-dimethylisoxazol-4-yl)-2,3-dihydrobenzofuran-2-yl)methyl)-3-(pyridin-3-yl)acrylamide] | < 0.1 | 0.1 to 5 | 0.1 to 5 |  |  |  | 
